According to patent publication US6335339B1, “Triazine antiviral compounds” (Scriptgen Pharmaceuticals, Inc., priority 1998, dated 2002):

Test system: RNA target containing only the bulge region of εRNA
Assay: melting temperature of bulge RNA (OD 260 nm)
Format: binding, Hepatitis B virus
Settings: 2 μM RNA plus 10 μM compound; RNA without drug 65° C.
Experimental: The melting temperature of the RNA was determined by monitoring the change in optical density at 260 nm with increasing temperature.
Further, a smaller RNA target containing only the bulge region of εRNA was prepared, and the melting temperature (tm) of this RNA structure was determined by monitoring the change in optical density (OD) at 260 nm while increasing the temperature. A 1 ml aliquot of reaction mixture contained 50 mM NaCl, 10 mM sodium cacodylate, pH 7.0, 10% DMSO, and 2 μM bulge RNA.

For `Cc1[nH]c2ccccc2c1C=NNc1nc(Nc2ccccc2)nc(Nc2ccc([N+](=O)[O-])cc2)n1` [Compound 6], the “melting temperature (tm) of bulge RNA” value was 83 °C.

Test system: HBV
Assay: antiviral assay in 2.2.15 cells producing HBV (virion DNA dot blot)
Format: cell-based, Hepatitis B virus
Settings: extra-cellular virus reduced by 50%; 2.2.15 cells, 9 days treatment; read-out: Antiviral EC50
From the text: Several cell lines and cell culture assays have been developed to identify potential therapeutics effective against chronic HBV infection. One of these cell lines, 2.2.15, has been used in a standardized assay that has repeatedly proven to be an accurate model of chronic cellular HBV replication and a predictive model of antiviral response for chronic hepadnaviral infection in vivo. 2.2.15 cells contain copies of the complete HBV genome integrated into the cell's genome, and 2.2.15 cells are not susceptible to infection by HBV. (Sells, M. A. et al., J. Virol. 62 (8): 2836-2844 (1988)). These cells express HBV genes producing complete HBV particles capable of infecting chimpanzees (Acs, G. et al., Proc. Natl. Acad. Sci. USA 84 (13): 4641-4644 (1987)). Briefly, 2.2.15 cells are cultured and pretreated with a test compound for about 9 days, at which point the media are harvested and subjected to dot-blot hybridization to detect HBV virion DNA.
The antiviral activity of the compounds of the present invention is measured by the methods described in Korba and Gering, Antiviral Res. 19: 55-70 (1992).
This assay format is well suited to the screening of test compounds for potential antiviral activity. The assay provides a threshold assessment of antiviral activity by measuring (i) the levels of HBV virion release from the cells and (ii) cytotoxicity. Two rows of cells were used for each compound, and 4 rows for the assay controls (two for untreated, and two for positive antiviral control, e.g., 3TC). After incubating in the presence of test compound for 9 days, the media were harvested, transferred to 96-well U-bottom plates, and centrifuged. The supernatants were transferred to tubes for dot blot hybridization analysis of HBV virion DNA. The medium was aspirated off of the toxicity plates and discarded. Toxicity plates were then incubated with neutral red dye (MTT can also be used if preferred), washed with DPBS, developed with an acetic acid-ethanol solution, and assayed in a plate reader.
1. 2.2.15 cells were seeded into 96-well, flat bottom tissue culture plates as described above. Duplicate plates were used for the antiviral treatments for each test compound (up to 8 compounds per pair of plates); after three to four days, cells were confluent and medium was yellow in color; the medium was removed and replaced with 100 μl RP2 24 hours before the beginning of drug treatment.
i) For each compound, a total of 4 concentrations were examined; this required 9 sets of 4 sterile, 1.1 ml minitubes (36 tubes per compound). Into the first tube of each set, sufficient compound was aliquoted to make up 700 μl (for 10-fold dilution series) or 980 μl (for 3.3-fold dilution series) of the highest test concentration; the other tubes were left empty.
i) For a 10-fold dilution series: to the first (compound containing) tube was added 700 μl (175 μl×4). 630 μl (210 μl×3) RP2 culture medium was added to the remaining 3 tubes. The first tube was mixed by pipeting up and down with a pipetman (a multichannel pipetman permits the simultaneous processing of multiple compounds). 70 μl of test compound-containing medium were serially transferred from the first tube to the other 3 tubes, taking care to thoroughly mix each tube before transferring medium;
b) 100 μl of each dilution of every compound was added to each of 6 wells (3 wells per plate) using the configuration listed below as an example. The lowest concentration was added first, and the same tips were used to add the higher concentrations. The untreated cells received 100 μl RP2 per well (untreated cells have to be carried on only one pair of the antiviral assay plates).
c) Treatments were repeated daily for 9 days. For the last day of treatment, and additional 200 μl RP2 were added to each well of the antiviral assay plates after the wells are treated with the test compounds (a total of 300 μl medium per well).
6. […]

First: Cc1[nH]c2ccccc2c1C=NNc1nc(Nc2ccccc2)nc(Nc2ccc([N+](=O)[O-])cc2)n1 [Compound 6]
Second: Cc1ccc(Nc2nc(NN=Cc3cccc([N+](=O)[O-])c3)nc(Nc3ccccc3)n2)c(C)c1 [Compound 229]
The EC50 of the first is lower: 0.3 µM for the first, over 100 µM for the second.

`Clc1ccc(C=NNc2nc(Nc3ccccc3)nc(N3CCCC3)n2)cc1` [Compound 218] and `CC(=NNc1nc(Nc2ccccc2)nc(N2CCCC2)n1)c1ccc(F)cc1` [Compound 227] cannot be ordered by EC50: over 100 µM for the first, over 100 µM for the second.

`Cc1ccc(Nc2nc(NCc3ccccc3)nc(NN=Cc3cc(Br)cc(Br)c3O)n2)cc1C` [Compound 219] and `Cc1ccc(Nc2nc(NCc3ccccc3)nc(NN=Cc3cc(Cl)ccc3O)n2)cc1C` [Compound 226] cannot be ordered by EC50: over 100 µM for the first, over 100 µM for the second.

First: O=C(NNc1nc(Nc2ccccc2)nc(Nc2cccc(C(F)(F)F)c2)n1)c1cccc(Br)c1 [Compound 220]
Second: CNc1nc(NN=Cc2ccccc2C(F)(F)F)nc(Nc2cccc(C(F)(F)F)c2)n1 [Compound 253]
The EC50 of the first is higher: over 100 µM for the first, 18 µM for the second.

`CN(C)c1nc(NCc2ccccc2)nc(NN=Cc2ccc(Cl)cc2Cl)n1` [Compound 224] and `CNc1nc(NN=Cc2cc(Cl)ccc2O)nc(Nc2ccccc2)n1` [Compound 245] cannot be ordered by EC50: over 100 µM for the first, over 100 µM for the second.

`COc1ccc(Nc2nc(NCc3cccc([N+](=O)[O-])c3)nc(NCc3cc(F)ccc3F)n2)cc1OC` [Compound 225] and `Cc1ccc(Nc2nc(NCc3cc(F)ccc3F)nc(Nc3ccc([N+](=O)[O-])cc3)n2)cc1C` [Compound 248] cannot be ordered by EC50: over 100 µM for the first, over 100 µM for the second.

`Cc1ccc(Nc2nc(NCc3ccccc3)nc(NN=Cc3ccccc3F)n2)cc1C` [Compound 228] and `Brc1ccc(Nc2nc(NCc3ccccc3)nc(Nc3ccc(Br)cc3)n2)cc1` [Compound 230] cannot be ordered by EC50: over 100 µM for the first, over 100 µM for the second.

`O=[N+]([O-])c1ccc(Nc2nc(NCc3ccccc3)nc(N3CCOCC3)n2)cc1` [Compound 231] and `Cc1ccc(Nc2nc(NN=Cc3ccc(Cl)cc3)nc(N3CCOCC3)n2)cc1` [Compound 249] cannot be ordered by EC50: over 100 µM for the first, over 100 µM for the second.

Going from `Oc1ccc(Br)cc1C=NNc1nc(Nc2cccc(Br)c2)nc(N2CCOCC2)n1` [Compound 232] to `Oc1ccc(Br)cc1C=NNc1nc(Nc2cccc(C(F)(F)F)c2)nc(N2CCOCC2)n1` [Compound 246], the EC50 falls from over 100 µM to 5.2 µM. The second is the more potent here.

`FC(F)(F)c1cccc(Nc2nc(Nc3cccc(Cl)c3)nc(N3CCOCC3)n2)c1` [Compound 247] and `Cc1ccc(Nc2nc(Nc3cccc(C(F)(F)F)c3)nc(N3CCOCC3)n2)cc1C` [Compound 251] cannot be ordered by EC50: over 100 µM for the first, over 100 µM for the second.

First: Cc1ccc(Nc2nc(NNC(=O)c3ccccc3O)nc(Oc3ccc([N+](=O)[O-])cc3)n2)cc1C [Compound 250]
Second: COc1ccc(Nc2nc(NCCc3ccccc3)nc(N(C)C)n2)cc1OC [Compound 252]
The EC50 of the first is higher: over 100 µM for the first, 9.5 µM for the second. The second is the more potent here.
